According to patent US8802635B2, “Antioxidant, anti-inflammatory, anti-radiation, metal chelating compounds and uses thereof” (Oneday—Biotech And Pharma Ltd., priority 2011, dated 2014):
Non-standard residues stand in square brackets, D forms with d. βAla = NCCC(=O)O

Columns and labels:
[1] = Metal chelation: copper binding by mass spectra (ESI); conditions: 0.83 mM peptide, 1.66 mM CuSO4, 1 hour room temperature
Protocol: All five peptides were examined for their ability to bind copper and ferric ions. 0.83 mM of each peptide were mixed with 1.66 mM of either FeCL3 or CuSO4. The mixtures were incubated for 1 hour at room temperature and further kept at ° 4 C until analysis. Samples were analyzed by mass spectra (ESI).

p38 MAP Kinase = assay: Inhibition of oxidative stress (auranofin)-induced p38 phosphorylation in SH-SY5Y cells; type: cell-based, Human; conditions: auranofin 5 μM
Protocol: (§1) Human neuroblastoma SH-SY5Y cells were maintained in Dulbecco's modified Eagle's medium (DMEM, Invitrogen) supplemented with 10% fetal bovine serum (Invitrogen), 100 μg/ml streptomycin and 100 U/ml penicillin G (Gibco). Cells were plated at a density of 6.25×10^4/cm^2 and incubated for 24 hours, after which they were exposed to different treatments.
(§2) SH-SY5Y cells were plated on 96-well plates and treated with Auranofin (AuF) (5 μM) for 30 min. Then the cells were washed with PBS and treated with either one of the peptides at the indicated concentrations. Twenty-four hours later, the cells were fixed with glutaraldehyde in final concentration of 0.5% for 10 min. Cells were washed 3 times with DDW dried over night, and washed once with borate buffer (0.1M, pH 8.5). The fixed cells were stained with 200 μl of 1% methylene blue dissolved in borate buffer for 1 hour. After extensive washing and drying, the color was extracted with 200 μl of 0.1 M HCl for 1 h at 37° C. and absorbance was read in spectrophotometer at 630 nm.
(§3) Twenty to thirty micrograms of protein samples were loaded on 10-12% SDS-PAGE gels. The proteins were then transferred electrophoretically to nitrocellulose (Whatman, Germany). The blots were blocked by incubation for 1 h at room temperature (RT) in TBS-T (25 mM Tris-HCl pH 7.4, 0.9% NaCl and 0.02% Tween-20) with 4% Difco skim milk (BD, USA), and incubated over-night at 4° C. with the primary antibody: pERK1/2 (Thr 202/Tyr204), mouse mAb, (1:6,000); p-SAPK/JNK (Thr183/Tyr185), rabbit mAb; SAPK/JNK, mouse mAb; p-p38MAP Kinase (Thr180/Tyr182), rabbit mAb; cleaved caspase 3, rabbit mAb. All antibodies were from Cell Signaling Tech. USA, used at 1:1000. Purified b Catenin, mouse mAb, (1:10,000; BD Transduction Laboratories, USA) diluted in 5% BSA, 0.04% Azide in TBS-T. Proteins were detected with Anti-Mouse or Anti-Rabbit IgG-HRP linked antibody (1:10,000; Cell Signaling, Tech. USA).

[2] = system: cellularity of the peritoneal exudates; assay: Ovalbumin-induced hypersensitivity (allergic peritonitis): peritoneal cellularity; type: in vivo, mice; conditions: 125 mg/kg i.p. on days 13, 14, 15
Protocol: Male BALB/c mice (6-8 weeks old) were housed under specific pathogen-free conditions and maintained on a 12-hour light/dark cycle, with food and water ad libitum. All materials and drugs were obtained from Sigma, Inc.
Mice in Groups A, B, C, and E (n=10 per group) were sensitized with intraperitoneal (i.p.) 200 μl of sterile PBS containing 100 μg ovalbumin (OVA) and 1.6 mg alum on days 0 and 7, and challenged with intraperitoneal (i.p.) 200 μl of sterile PBS containing 10 μg ovalbumin (OVA) on day 14 in order to induce an experimental model of allergic peritonitis. Mice in Group F (n=10) were injected with intraperitoneal (i.p) 200 μl sterile PBS (“sham” group, no OVA and no Alum).
Mice in Groups A, B, and C, were treated with 150 μl of sterile PBS containing peptides DY-66, DY-65 and DY-70, respectively, at a dose of 125 mg/kg on days 13, 14, and 15 via an i.p. route of administration.
Mice in Groups E and F were treated with 150 μl of sterile PBS on days 13, 14, and 15 via an i.p. route of administration. On day 14 the test articles (or PBS vehicle) were injected 30 minutes before injecting the OVA.

IkappaBalpha = assay: Cytoplasmic stability of I-kappaBalpha in lung, zymosan-induced inflammation; type: in vivo, mice; conditions: lung tissue, 24 hours after zymosan
Protocol: Male BALB/c mice were randomly allocated into the following experimental groups:
The peptides were administered by an intraperitoneal (i.p.) route of administration as described in Example 3.
The peptides were formulated in D5W as described in Example 3. The vehicle control was D5W.
At 24 hours after administration of zymosan, animals were euthanized and assessed for inflammation by an NF-κB analysis of lung tissue.
Tissues were homogenized and nuclear extracts prepared via centrifugation. ELISA for IkappaBalpha was performed, using a series of standards in order to define absolute concentrations.

[3] = system: carrageenan-induced hind paw swelling; assay: Carrageenan-induced hind paw swelling; type: in vivo, mice; conditions: 150 mg/kg i.p. 30 min prior to carrageenan; for swelling reduction compared to control: control saline only
Protocol: The above new five peptides were examined for anti-inflammatory activity, and their activity was compared to that of peptide CB3. Male ICR mice received an i.p. administration of each of the tested peptide (150 mg/kg) 30 min prior to the injection of carrageenan into the sub-plantar area of both of the animal's hind paws. Carrageenan was dissolved in water at concentration of 3 mg/ml and injected at a volume of 50 μl. Hind paw thickness was measured by Mitutoyo® micrometer before carrageenan injection and afterward at intervals of 1 hour between each measurement. Swelling was calculated as the difference between the thickness of the hind paw measured at each time interval and its size at time 0 (before carrageenan injection). n=6 foot pads (3 animals) for each group.

[4] = system: JNK (c-Jun N-terminal kinases); assay: Inhibition of oxidative stress (auranofin)-induced JNK phosphorylation in SH-SY5Y cells; type: cell-based, Human; conditions: auranofin 5 μM
Protocol: as §1, §2, §3

[5] = system: alanine aminotransferase (ALT) in plasma / liver necrosis; assay: Concanavalin A-induced liver inflammation in C57BL/6 mice; type: in vivo
Protocol: Six groups of C57BL/6 female mice (7-8 weeks old) containing 6 mice in each group were injected i.p. with different peptide on days −3, −2, −1 at a dose of 50 mg/kg or with PBS alone. On day zero all the mice were injected i.v. with 250 μg/mouse of Con A and 45 min. later they were injected i.p. with 150 mg/kg of each peptide or PBS.
Eight hours after Con A injection mice were bled into heparinized tubes (approx. 150 ul of blood from each mouse) and the levels of alanine aminotransferase (ALT) was measured in the plasma.
One day later the mice were sacrificed and their livers were placed in 4% formalin and sent for pathological examination.
Next, peptide DY-66 was examined and compared to N-acetylcysteine (NAC), CB3 and CB4. The compounds were tested according to the procedure described above. ConA dose was 180 μg/mouse.
FIG. 8 presents the change in ALT levels (%) for each of the tested compounds compared to PBS treatment (i.e., the ratio between ALT levels in samples obtained from mice treated with a tested compound and ALT levels in samples obtained from PBS-treated mice)

[6] = Con A 250 μg/mouse i.v., 8 h after Con A

Substance	copper binding (in words) [1]	IC50 (p38 MAP Kinase)	effect on OVA-induced elevation of peritoneal exudate cellularity (in words) [2]	rank order of reduction of peritoneal exudate cellularity [2]	rank order of efficacy on cytoplasmic IkappaBalpha (IkappaBalpha)	swelling reduction compared to control ([3]; after 1 hour)	swelling reduction compared to control ([3]; after 2 hours)	swelling reduction compared to control ([3]; after 3 hours)	IC50 [4]	mice found dead ([5]; 24 hours post Con A 250 μg, 6 mice in each group)	hind paw swelling compared to control (in words) [3]	necrotic area in liver, histo-pathological report (in words) ([5]; Con A 250 μg/mouse i.v.)	reduction of ALT average compared to PBS-treated mice [5, 6]	reduction of ALT median compared to PBS-treated mice [5, 6]	reduction of ALT average compared to PBS-treated mice ([5]; ConA dose 180 μg/mouse)	reduction of ALT median compared to PBS-treated mice ([5]; ConA dose 180 μg/mouse)
N-acetyl-Cys-Lys-Met-Cys-NH2 (Ac-CKMC-NH2; cysteine pairing not given here) [DY-65]	binding was observed	36.7 µM	significantly reduced the elevation	DY-65>DY-70>DY-66	DY-70>DY-65>DY-66	40%	27%	34%	32.3 µM	1						
N-acetyl-Cys-βAla-His-Cys-NH2 (Ac-C[βAla]HC-NH2; cysteine pairing not given here) [DY-66]	low degree	67 µM	significantly reduced the elevation	DY-65>DY-70>DY-66	DY-70>DY-65>DY-66				86.9 µM		Reduced swelling compared to control	significant (p=0.011) decrease in necrotic area	69%	75%	71%	89%
